# Data taken from ChEMBL document CHEMBL1201862, “PubChem BioAssay data set” (2004).
# “And” between values parts separate entries of the source, which are not always exact repeats. Equal values may be shown once.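 Test compounds were applied to cells in 96-well plates for 48 hours at 5 doses. At the GI50, growth is halved.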 The source made the active and inactive calls. Rule as the data show it: active = GI50 up to about 1.1 µM and inactive = higher.
# Key:
# Assay in all cases: NCI anticancer screen, dose series, 48 h
# UACC-62 = system: UACC-62
# RXF 393 = system: RXF 393
# OVCAR-8 = system: OVCAR-8
# MDA-MB-435 = system: MDA-MB-435
# UACC-257 = system: UACC-257
# MCF7 = system: MCF7
# DMS-273 = system: DMS-273
# PC-3 = system: PC-3
# HCT-116 = system: HCT-116
# MOLT-4 = system: MOLT-4
# MDA-N = system: MDA-N
# XF498 = system: XF498
# Hs-578T = system: Hs-578T
# SR = system: SR
# HT-29 = system: HT-29
# KM-20L2 = system: KM-20L2
# A549 = system: A549
# OVCAR-5 = system: OVCAR-5
# K562 = system: K562
# MDA-MB-231 = system: MDA-MB-231
# LOX IMVI = system: LOX IMVI
# M14 = system: M14
# EKVX = system: EKVX
# OVCAR-3 = system: OVCAR-3
# SK-MEL-2 = system: SK-MEL-2
# T47D = system: T47D
# NCI-H460 = system: NCI-H460
# LXFL 529 = system: LXFL 529
# DU-145 = system: DU-145
# NCI/ADR-RES = system: NCI/ADR-RES
# KM12 = system: KM12
# SF-268 = system: SF-268
# DMS-114 = system: DMS-114
# NCI-H23 = system: NCI-H23
# Malme-3M = system: Malme-3M
# BT-549 = system: BT-549
# SW-620 = system: SW-620
# RPMI-8226 = system: RPMI-8226
# SNB-78 = system: SNB-78
# RXF 631 = system: RXF 631
# DLD-1 = system: DLD-1
# UO-31 = system: UO-31
# CCRF-CEM = system: CCRF-CEM
# SK-MEL-28 = system: SK-MEL-28
# SK-OV-3 = system: SK-OV-3
# HOP-18 = system: HOP-18
# SK-MEL-5 = system: SK-MEL-5
# COLO 205 = system: COLO 205
# HL-60 = system: HL-60
# TK-10 = system: TK-10
# OVCAR-4 = system: OVCAR-4
# NCI-H226 = system: NCI-H226
# SNB-19 = system: SNB-19
# HOP-62 = system: HOP-62
# M19-MEL = system: M19-MEL
# CAKI-1 = system: CAKI-1
# SF-295 = system: SF-295
# SN12C = system: SN12C
# HCC 2998 = system: HCC 2998
# U-251 = system: U-251
# 786-0 = system: 786-0
# HCT-15 = system: HCT-15
# SF-539 = system: SF-539
# IGROV-1 = system: IGROV-1
# ACHN = system: ACHN
# HOP-92 = system: HOP-92
structure (smiles),measurement,setting,value
CC(C)(O)/C=C/C(=O)[C@](C)(O)[C@H]1[C@H](O)C[C@@]2(C)[C@@H]3CC=C4[C@@H](C=C(O)C(=O)C4(C)C)[C@]3(C)C(=O)C[C@]12C [CUCURBITACIN I],GI50,UACC-62,805 nM (active) and 607 nM (active)
same,GI50,RXF 393,225 nM (active) and 440 nM (active)
same,GI50,OVCAR-8,1.3 µM (inactive) and 2.13 µM (inactive)
same,GI50,MDA-MB-435,< 0.01 µM (active)
same,GI50,UACC-257,324 nM (active) and 555 nM (active)
same,GI50,MCF7,0.0245 µM (active)
same,GI50,DMS-273,243 nM (active) and 218 nM (active)
same,GI50,PC-3,0.0238 µM (active)
same,GI50,HCT-116,631 nM (active) and 363 nM (active)
same,GI50,MOLT-4,1.88 µM (inactive) and 1.61 µM (inactive)
same,GI50,MDA-N,< 0.01 µM (active)
same,GI50,XF498,284 nM (active) and 330 nM (active)
same,GI50,Hs-578T,0.0485 µM (active)
same,GI50,SR,644 nM (active) and 410 nM (active)
same,GI50,HT-29,538 nM (active) and 321 nM (active)
same,GI50,KM-20L2,482 nM (active) and 318 nM (active)
same,GI50,A549,493 nM (active) and 271 nM (active)
same,GI50,OVCAR-5,3.03 µM (inactive) and 3.24 µM (inactive)
same,GI50,K562,841 nM (active) and 504 nM (active)
same,GI50,MDA-MB-231,0.0223 µM (active)
same,GI50,LOX IMVI,430 nM (active) and 238 nM (active)
same,GI50,M14,548 nM (active) and 303 nM (active)
same,GI50,EKVX,975 nM (active) and 1.27 µM (inactive)
same,GI50,OVCAR-3,395 nM (active) and 783 nM (active)
same,GI50,SK-MEL-2,442 nM (active) and 237 nM (active)
same,GI50,T47D,0.104 µM (active)
same,GI50,NCI-H460,288 nM (active) and 543 nM (active)
same,GI50,LXFL 529,339 nM (active) and 513 nM (active)
same,GI50,DU-145,< 0.01 µM (active)
same,GI50,NCI/ADR-RES,0.126 µM (active)
same,GI50,KM12,1.9 µM (inactive) and 1.12 µM (inactive)
same,GI50,SF-268,475 nM (active) and 251 nM (active)
same,GI50,DMS-114,1.21 µM (inactive) and 698 nM (active)
same,GI50,NCI-H23,2.38 µM (inactive) and 1.33 µM (inactive)
same,GI50,Malme-3M,536 nM (active) and 329 nM (active)
same,GI50,BT-549,0.0147 µM (active)
same,GI50,SW-620,334 nM (active) and 541 nM (active)
same,GI50,RPMI-8226,281 nM (active) and 318 nM (active)
same,GI50,SNB-78,303 nM (active) and 528 nM (active)
same,GI50,RXF 631,372 nM (active) and 536 nM (active)
Nc1nc(N)c(-c2ccccc2)c(C(=O)Nc2nccs2)n1,GI50,UACC-62,> 100 µM (inactive)
same,GI50,RXF 393,> 100 µM (inactive)
same,GI50,OVCAR-8,> 100 µM (inactive)
same,GI50,DLD-1,> 100 µM (inactive)
same,GI50,UACC-257,> 100 µM (inactive)
same,GI50,UO-31,> 100 µM (inactive)
same,GI50,CCRF-CEM,> 100 µM (inactive)
same,GI50,HCT-116,> 100 µM (inactive)
same,GI50,SK-MEL-28,> 100 µM (inactive)
same,GI50,MOLT-4,> 100 µM (inactive)
same,GI50,SK-OV-3,> 100 µM (inactive)
same,GI50,HOP-18,> 100 µM (inactive)
same,GI50,SK-MEL-5,> 100 µM (inactive)
same,GI50,HT-29,> 100 µM (inactive)
same,GI50,COLO 205,> 100 µM (inactive)
same,GI50,HL-60,> 100 µM (inactive)
same,GI50,TK-10,> 100 µM (inactive)
same,GI50,KM-20L2,> 100 µM (inactive)
same,GI50,A549,> 100 µM (inactive)
same,GI50,OVCAR-5,> 100 µM (inactive)
same,GI50,OVCAR-4,> 100 µM (inactive)
same,GI50,K562,> 100 µM (inactive)
same,GI50,NCI-H226,> 100 µM (inactive)
same,GI50,LOX IMVI,> 100 µM (inactive)
same,GI50,M14,> 100 µM (inactive)
same,GI50,EKVX,> 100 µM (inactive)
same,GI50,SNB-19,> 100 µM (inactive)
same,GI50,OVCAR-3,> 100 µM (inactive)
same,GI50,HOP-62,> 100 µM (inactive)
same,GI50,M19-MEL,> 100 µM (inactive)
same,GI50,CAKI-1,> 100 µM (inactive)
same,GI50,SK-MEL-2,> 100 µM (inactive)
same,GI50,SF-295,> 100 µM (inactive)
same,GI50,SN12C,> 100 µM (inactive)
same,GI50,HCC 2998,> 100 µM (inactive)
same,GI50,NCI-H460,> 100 µM (inactive)
same,GI50,LXFL 529,> 100 µM (inactive)
same,GI50,U-251,> 100 µM (inactive)
same,GI50,786-0,> 100 µM (inactive)
same,GI50,KM12,> 100 µM (inactive)
same,GI50,HCT-15,> 100 µM
same,GI50,SF-539,> 100 µM (inactive)
same,GI50,SF-268,> 100 µM (inactive)
same,GI50,DMS-114,> 100 µM (inactive)
same,GI50,IGROV-1,> 100 µM (inactive)
same,GI50,NCI-H23,> 100 µM (inactive)
same,GI50,Malme-3M,> 100 µM (inactive)
same,GI50,ACHN,> 100 µM (inactive)
same,GI50,SW-620,> 100 µM (inactive)
same,GI50,SNB-78,> 100 µM (inactive)
same,GI50,HOP-92,> 100 µM (inactive)
same,GI50,RXF 631,> 100 µM (inactive)
